# Assay results: patent publication US20180320217A1, “METHODS FOR SAMPLING AND MEASURING ORAL LAVAGE PROTEINS” (The Procter & Gamble Company, priority 2017, published 2018)
# Several values for one entry are separate records, joined by “and”; a condition that tells them apart may be missing. Equal entries are not always repeated. Entries after “also recorded” stand apart in the source; their conditions may differ.
# What was measured:
# [1] = system: oral lavage; experiment: Formation of formazan dyes: oral lavage, malate and diaphorase (TABLE 12); type: biochemical, human; conditions: oral lavage, malate and diaphorase
# [2] = system: Malate dehydrogenase and diaphorase; experiment: Formation of formazan dyes: Malate dehydrogenase, diaphorase and malate (TABLE 10); type: biochemical, pig heart
# [3] = system: oral lavage; experiment: Formation of formazan dyes: oral lavage and 1-Methoxy PMS, absence of malate (TABLE 19); type: biochemical, human; conditions: monosodium salt
# [4] = Formation of formazan dyes: control buffer, malate and 1-Methoxy PMS (TABLE 22); type: biochemical
# [5] = system: diaphorase; experiment: Formation of formazan dyes: NADH, diaphorase and malate (TABLE 8); type: biochemical, Clostridium kluyveri; conditions: NADH, diaphorase and malate
# [6] = Formation of formazan dyes: NADH and 1-methoxy PMS, absence of malate (TABLE 15); type: biochemical
# [7] = system: diaphorase; experiment: Formation of formazan dyes: NADH and diaphorase, absence of malate (TABLE 7); type: biochemical, Clostridium kluyveri; conditions: NADH and diaphorase, absence of malate
# [8] = Formation of formazan dyes: NADH, malate and 1-methoxy PMS (TABLE 16); type: biochemical; conditions: monosodium salt
# [9] = system: diaphorase; experiment: Formation of formazan dyes: only diaphorase and malate (TABLE 14); type: biochemical, Clostridium kluyveri; conditions: mean of three experiments
# [10] = target: T1, Malate dehydrogenase (Sus scrofa, UniProt P00346); experiment: Formation of formazan dyes: Malate dehydrogenase and 1-Methoxy PMS, absence of malate (TABLE 17); type: biochemical, pig heart; design: L-malate dehydrogenase (pig heart); purchased Sigma-Aldrich 10127248001 / 10127914001
# T1 sequence (P00346 25-338): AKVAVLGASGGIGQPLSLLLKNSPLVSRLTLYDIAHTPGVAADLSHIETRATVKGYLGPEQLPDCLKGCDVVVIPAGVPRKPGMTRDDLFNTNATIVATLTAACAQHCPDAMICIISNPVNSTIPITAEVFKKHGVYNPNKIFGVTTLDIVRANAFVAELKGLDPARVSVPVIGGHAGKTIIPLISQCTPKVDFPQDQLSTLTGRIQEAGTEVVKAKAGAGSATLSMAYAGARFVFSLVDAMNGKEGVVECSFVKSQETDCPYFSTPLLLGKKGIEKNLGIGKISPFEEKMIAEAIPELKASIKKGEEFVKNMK
# [11] = system: diaphorase; experiment: Effect of concentrations of tetrazolium salts on formation of formazan dyes (FIGS. 4A-4G); type: biochemical; conditions: 15 mM NADH+H, 20 μg diaphorase, pH 7.5; FIGS. 4A to 4G
# Experimental: On the idea that higher concentrations of tetrazolium salts in the assay buffer would likely result in more formazan dyes in the reaction, various concentrations of tetrazolium salts were added to a reaction buffer and the formation of formazan dyes were measured at 0, 30 and 60 minutes. […] The reactions were performed at room temperature. Absorbance was taken at 0, 30 and 60 minutes.
# [12] = system: oral lavage; experiment: Formation of formazan dyes: oral lavage and diaphorase, not malate (TABLE 11); type: biochemical, human
# [13] = system: diaphorase; experiment: Formation of formazan dyes: only diaphorase, not malate (TABLE 13); type: biochemical, Clostridium kluyveri; conditions: mean of three experiments
# [14] = Formation of formazan dyes: control buffer and 1-Methoxy PMS, absence of malate (TABLE 21); type: biochemical; conditions: monosodium salt
# [15] = system: Malate dehydrogenase and diaphorase; experiment: Formation of formazan dyes: Malate dehydrogenase and diaphorase, absence of malate (TABLE 9); type: biochemical, pig heart
smiles,measurement,setting,value
"COc1cc([N+](=O)[O-])ccc1-[n+]1nc(-c2ccc(S(=O)(=O)[O-])cc2S(=O)(=O)[O-])nn1-c1ccc([N+](=O)[O-])cc1.[Na+] [WST-8, 5-(2,4-disulfophenyl)-3-(2-methoxy-4-nitrophenyl)-2-(4-nitrophenyl)-2H-tetrazolium, inner salt, monosodium salt]","Formation of formazan dyes, absorbance, Means 0 h",[1]; 0 h,0.51
same,"Formation of formazan dyes, absorbance, Means 1 h",[1]; 1 h,0.70
same,"Formation of formazan dyes, absorbance, Means 2 h",[1]; 2 h,0.80
same,"Formation of formazan dyes, absorbance, Means 3 h",[1]; 3 h,0.84
same,"Formation of formazan dyes, absorbance, Means 4 h",[1]; 4 h,0.85
same,"Formation of formazan dyes, absorbance, Means 6 h",[1]; 6 h,0.91
same,"Formation of formazan dyes, absorbance, Means 8 h",[1]; 8 h,1.05
same,"Formation of formazan dyes, absorbance, Means 10 h",[1]; 10 h,1.09
same,"Formation of formazan dyes, absorbance, Means 12 h",[1]; 12 h,1.33
same,"Formation of formazan dyes, absorbance, Means 0 h","[2]; Malate dehydrogenase, diaphorase and malate, 0 h",1.13
same,"Formation of formazan dyes, absorbance, Means 1 h","[2]; Malate dehydrogenase, diaphorase and malate, 1 h",1.93
same,"Formation of formazan dyes, absorbance, Means 2 h","[2]; Malate dehydrogenase, diaphorase and malate, 2 h",2.36
same,"Formation of formazan dyes, absorbance, Means 3 h","[2]; Malate dehydrogenase, diaphorase and malate, 3 h",2.65
same,"Formation of formazan dyes, absorbance, Means 4 h","[2]; Malate dehydrogenase, diaphorase and malate, 4 h",2.86
same,"Formation of formazan dyes, absorbance, Means 6 h","[2]; Malate dehydrogenase, diaphorase and malate, 6 h",3.12
same,"Formation of formazan dyes, absorbance, Means 8 h","[2]; Malate dehydrogenase, diaphorase and malate, 8 h",3.26
same,"Formation of formazan dyes, absorbance, Means 10 h","[2]; Malate dehydrogenase, diaphorase and malate, 10 h",3.30
same,"Formation of formazan dyes, absorbance, Means 12 h","[2]; Malate dehydrogenase, diaphorase and malate, 12 h",3.28
same,conversion to reduced formazan dyes,"[2]; malate dehydrogenase, diaphorase and malate (TABLE 10), monosodium salt",converted to reduced formazan dyes in a time-dependent fashion; also recorded: able to catalyze the reduction
same,"Absorbance, formation of formazan dyes (Means)",[3],1.03 and 1.38 and 1.68 and 1.86
same,Means absorbance 0 h,[4],0.19
same,Means absorbance 1 h,[4],0.20
same,Means absorbance 2 h,[4],0.23
same,Means absorbance 3 h,[4],0.26
same,"Formation of formazan dyes, absorbance, Means 0 h",[5]; 0 h,3.06
same,"Formation of formazan dyes, absorbance, Means 1 h",[5]; 1 h,3.36
same,"Formation of formazan dyes, absorbance, Means 2 h",[5]; 2 h,3.47
same,"Formation of formazan dyes, absorbance, Means 3 h",[5]; 3 h,3.53
same,"Formation of formazan dyes, absorbance, Means 4 h",[5]; 4 h,3.50
same,"Formation of formazan dyes, absorbance, Means 6 h",[5]; 6 h,3.54
same,"Formation of formazan dyes, absorbance, Means 8 h",[5]; 8 h,3.54
same,"Formation of formazan dyes, absorbance, Means 10 h",[5]; 10 h,3.51
same,"Formation of formazan dyes, absorbance, Means 12 h",[5]; 12 h,3.45
same,formation of formazan dyes / precipitates with 1-methoxy PMS and NADH,[6],converted to formazan dyes quickly
same,"Absorbance, formation of formazan dyes (Means)",[6]; monosodium salt,3.65 and 3.66 and 3.67
same,"Formation of formazan dyes, absorbance, Means 0 h",[7]; 0 h,3.54
same,"Formation of formazan dyes, absorbance, Means 1 h",[7]; 1 h,3.72
same,"Formation of formazan dyes, absorbance, Means 2 h",[7]; 2 h,3.77
same,"Formation of formazan dyes, absorbance, Means 3 h",[7]; 3 h,3.77
same,"Formation of formazan dyes, absorbance, Means 4 h",[7]; 4 h,3.63
same,"Formation of formazan dyes, absorbance, Means 6 h",[7]; 6 h,3.64
same,"Formation of formazan dyes, absorbance, Means 8 h",[7]; 8 h,3.66
same,"Formation of formazan dyes, absorbance, Means 10 h",[7]; 10 h,3.65
same,"Formation of formazan dyes, absorbance, Means 12 h",[7]; 12 h,3.67
same,"Absorbance, formation of formazan dyes (Means)",[8],3.37 and 3.42 and 3.41
same,"Absorbance, formation of formazan dyes (Means)",[9]; 0 h,0.10
same,"Absorbance, formation of formazan dyes (Means)",[9]; 1 h,0.14
same,"Absorbance, formation of formazan dyes (Means)",[9]; 2 h,0.16
same,"Absorbance, formation of formazan dyes (Means)",[9]; 3 h,0.19
same,"Absorbance, formation of formazan dyes (Means)",[9]; 4 h,0.21
same,"Absorbance, formation of formazan dyes (Means)",[9]; 6 h,0.26
same,"Absorbance, formation of formazan dyes (Means)",[9]; 8 h,0.31
same,"Absorbance, formation of formazan dyes (Means)",[9]; 10 h,0.35
same,"Absorbance, formation of formazan dyes (Means)",[9]; 12 h,0.38
same,reduction by malate dehydrogenase alone,[10],did not catalyze the reduction
same,"Absorbance, formation of formazan dyes (Means)",[10]; monosodium salt,0.35 and 0.47
same,concentration of tetrazolium salt at which absorbance reached peaks,[11],2 mM
same,"Formation of formazan dyes, absorbance, Means 0 h","[12]; oral lavage and diaphorase, not malate, 0 h",0.59
same,"Formation of formazan dyes, absorbance, Means 1 h","[12]; oral lavage and diaphorase, not malate, 1 h",0.83
same,"Formation of formazan dyes, absorbance, Means 2 h","[12]; oral lavage and diaphorase, not malate, 2 h",0.87
same,"Formation of formazan dyes, absorbance, Means 3 h","[12]; oral lavage and diaphorase, not malate, 3 h",0.84
same,"Formation of formazan dyes, absorbance, Means 4 h","[12]; oral lavage and diaphorase, not malate, 4 h",0.82
same,"Formation of formazan dyes, absorbance, Means 6 h","[12]; oral lavage and diaphorase, not malate, 6 h",0.88
same,"Formation of formazan dyes, absorbance, Means 8 h","[12]; oral lavage and diaphorase, not malate, 8 h",1.00
same,"Formation of formazan dyes, absorbance, Means 10 h","[12]; oral lavage and diaphorase, not malate, 10 h",1.00
same,"Formation of formazan dyes, absorbance, Means 12 h","[12]; oral lavage and diaphorase, not malate, 12 h",1.01
same,reduction to formazan dyes by pooled oral lavage,"[12]; pooled oral lavage of high bleeder group, diaphorase, no added malate (TABLE 11)",partially reduced to formazan dyes
same,"Absorbance, formation of formazan dyes (Means)",[13]; 0 h,0.22
same,"Absorbance, formation of formazan dyes (Means)",[13]; 1 h,0.38
same,"Absorbance, formation of formazan dyes (Means)",[13]; 2 h,0.46
same,"Absorbance, formation of formazan dyes (Means)",[13]; 3 h,0.48
same,"Absorbance, formation of formazan dyes (Means)",[13]; 4 h,0.43
same,"Absorbance, formation of formazan dyes (Means)",[13]; 6 h,0.46
same,"Absorbance, formation of formazan dyes (Means)",[13]; 8 h,0.44
same,"Absorbance, formation of formazan dyes (Means)",[13]; 10 h,0.44
same,"Absorbance, formation of formazan dyes (Means)",[13]; 12 h,0.47
same,"Absorbance, formation of formazan dyes (Means)",[14],0.44 and 0.55 and 0.49 and 0.62
same,"Formation of formazan dyes, absorbance, Means 0 h","[15]; Malate dehydrogenase and diaphorase, absence of malate, 0 h",1.13
same,"Formation of formazan dyes, absorbance, Means 1 h","[15]; Malate dehydrogenase and diaphorase, absence of malate, 1 h",1.84
same,"Formation of formazan dyes, absorbance, Means 2 h","[15]; Malate dehydrogenase and diaphorase, absence of malate, 2 h",2.15
same,"Formation of formazan dyes, absorbance, Means 3 h","[15]; Malate dehydrogenase and diaphorase, absence of malate, 3 h",2.32
same,"Formation of formazan dyes, absorbance, Means 4 h","[15]; Malate dehydrogenase and diaphorase, absence of malate, 4 h",2.41
same,"Formation of formazan dyes, absorbance, Means 6 h","[15]; Malate dehydrogenase and diaphorase, absence of malate, 6 h",2.62
same,"Formation of formazan dyes, absorbance, Means 8 h","[15]; Malate dehydrogenase and diaphorase, absence of malate, 8 h",2.72
same,"Formation of formazan dyes, absorbance, Means 10 h","[15]; Malate dehydrogenase and diaphorase, absence of malate, 10 h",2.80
same,"Formation of formazan dyes, absorbance, Means 12 h","[15]; Malate dehydrogenase and diaphorase, absence of malate, 12 h",2.89
same,reduction of tetrazolium dye in the absence of substrate malate,[15]; malate dehydrogenase and diaphorase (TABLE 9),partially reduced
